# Data from patent publication US20240156756A1 (Steel Therapeutics, Inc., priority 2021, published 2024).
# Where a name gives a salt, the structure may show the parent alone. Read-outs that look alike come from different tables or passages of the source.
# What was measured:
# [1] = for stability of control sample (active only, no excipient): HPLC impurities
# [2] = system: chronic anal fissures; conditions: cream containing 0.5% nifedipine for four weeks; cited from earlier work
"stability of control sample (active only, no excipient) ([1]; T0, both temperatures (RT & 40° C.))","degradation in any excipient combinations ([1]; T0, both temperatures (RT & 40° C.), major = >5%)","degradation in DEC combinations ([1]; T4 weeks, Benzyl Alcohol and Oleyl alcohol combinations)","major degradation in DEC combinations ([1]; T4 weeks, RT & 40° C., combinations of Transcutol, DMI, and PEG 400) [%]","stability of control sample (active only, no excipient) ([1]; T4 weeks, both temperatures (RT & 40° C.))",SMILES,patients experienced healing [2] [%]
stable,No major degradation,Slight degradation,> 5,stable,"CCN(CC)CC(=O)Nc1c(C)cccc1C [Lidocaine HCl, 2-(diethylamino)-N-(2,6-dimethylphenyl)acetamide;hydrochloride]",
,,,,,"COC(=O)C1=C(C)NC(C)=C(C(=O)OC)C1c1ccccc1[N+](=O)[O-] [Nifedipine, dimethyl 2,6-dimethyl-4-(2-nitrophenyl)-1,4-dihydropyridine-3,5-dicarboxylate]",70
